One compound from patent US11427574B2, “Compounds for treating Rac-GTPase mediated disorder” (Children's Medical Center Corporation, priority 2015, dated 2022) can be followed below.

Data set [1] deals with SEM leukemic cell line. The experiment in a line: In vivo SEM leukemia model in NSG mice. Conditions: 250 mg/Kg twice a day for 21 days. Here is the method: (§1) Compound 1 was assayed for its pharmacokinetics and anti-leukemia activities in mice. Specifically, a SEM leukemic cell line was labeled with a vector encoding the mCherry tag and Luciferase. 500,000 labeled cells were injected into immunodeficient mice (NSG mice). After establishment of leukemia (as assessed by bioluminescent imaging), mice were treated with Compound 1 at a dose 250 mg/Kg or a vehicle for 21 days twice a day. During treatment, mice were imaged every other day and BLI recorded and analyzed. 2 hours after the last dose, animals were sacrificed and organs harvested for PK and PD analysis.
FIGS. 8b and 8c show the bioluminescence data obtained from the mice treated with Compound 1 and a vehicle when the mice were imaged in a supine position and a prone position, respectively.

For data set [2], the system named is P12-Ichikawa cells. The experiment in a line: Proliferation assay in P12 leukemia cells. It is filed as cell-based. The following applies: Homo sapiens, read-out: IC50, inhibition of proliferation. Here is the method: (§2) Dose Dependent Inhibition of Proliferation The 100 compounds selected from the initial in silico screen were assayed for inhibition of proliferation in two leukemia cell lines, SEM and P12 by Cell Titer Glo. The cells for the proliferation assay were spun down and re-suspended. The cell suspension was then divided and the compound to be tested added in desired concentrations and subsequently plated. Following an incubation period, the Cell Titer Glo reagent (Promega CellTiter 96® Aqueous Non-Radioactive Cell Proliferation Assay) was added and allowed to incubate. The absorbance is subsequently measured at 490 nm using a plate reader. Each compound was analyzed for its effects on cell proliferation.
(§3) The lead compound, i.e. Compound 1, was analyzed for its effect on cell proliferation at various doses on three different leukemia cell lines: SEM, P12, and Loucy. In order to quantitate the percentage inhibition of cell proliferation, Cell Titer Glo analysis was completed as described in Example 2 above.
(§4) FIGS. 3a-3c show three graphs illustrating the dose dependent inhibition of proliferation of Compound 1 in SEM, P12, and Loucy cells as measured by MTS assay. […] Compound 1 was further analyzed for its effect on cell apoptosis and cell death using a flow based assay using Annexin V staining.

Data set [3] has as its target T1, CDC42 (Homo sapiens, UniProt P60953).
T1 construct: endogenous in cells
The experiment in a line: CDC42 activation pull down assay (Western blot). The class given is cell-based. Conditions: Western Blot (FIG. 10a). The procedure: (§5) To determine which of these compounds should be further pursued, a biochemical pull down assay was performed to confirm specific inhibition of Rac activation indicated by disruption of the interaction between Rac and […]. The assay initially required treatment of cells followed by pull down and analysis with Western blot. The cells were first starved in serum free media for 2 hours. They were then re-suspended in serum-containing medium and inhibitors added at desired concentration. Following incubation for the desired length of time, the cells were pelleted and lysed with Magnesium Lysis Buffer (Millipore Mg^2+ lysis/wash buffer). The Rac protein and any bound proteins were then collected with Pak Beads (Millipore Rac/cdc42 Assay Reagent (PAK-1 PBD, agarose). Bound protein was subsequently removed with lysis buffer and subject to Western Blot analysis.
Compound 1 was tested to evaluate its effect on CDC42 activation. In this case, beads for the immunoprecipitation were coated with a CDC42 effector domain. […] The Western Blot and pull down analyses are also shown for DMSO and […].

Data set [4] addresses Rac1 (Homo sapiens, UniProt P63000). Nature of the data set: 2D NMR spectroscopy binding assay. The following applies: 50 μM Rac1 and 250 μM or 400 μM Compound 1. Here is the method:
(§6) Compound 1 was tested for its efficacy in binding with Rac1 in two independent binding assays, i.e., 2D NMR spectroscopy and Homologous time resolved fluorescence assay (HTRF).
(§7) In the 2D NMR assay, samples containing 50 μM Rac1 and 250 μM or 400 μM Compound 1 were used.
(§8) Compound 2 was tested for its efficacy in binding with Rac1 in two independent binding assays, i.e., 2D NMR spectroscopy and Homologous time resolved fluorescence assay (HTRF).
(§9) In the 2D NMR assay, a sample containing 50 μM Rac1 and 250 μM Compound 2 was used.

The test system of data set [5] is Rac. The experiment in a line: Rac activation pull down assay (PAK beads, Western blot). It is filed as cell-based. Conditions: Western Blot (FIG. 2a). Here is the method:
as §5
Compound 1 was identified as a lead compound from the above analyses. […] The Western Blot and pull down analyses are also shown for the compound DMSO, and the compound NSC23776, which is a known inhibitor of Rac1 binding and of Rac activation by Rac-specific RhoGEFs.

The subject of data set [6] is Loucy cells. Nature of the data set: Proliferation assay in Loucy leukemia cells. It is filed as cell-based. The following applies: read-out: IC50, inhibition of proliferation. The procedure: as §2, §3, §4
Data set [7] concerns SEM cell line. The experiment in a line: Annexin V flow assay for apoptosis and cell death, SEM. It is filed as cell-based. The following applies: Annexin V staining.
Source text: as §4
Compound 2 was further analyzed for its effect on cell apoptosis and cell death using a flow based assay using Annexin V staining.

For data set [8], the system named is 40 kinases. The experiment in a line: Kinase screening, whole panel. The class given is biochemical. The following applies: summary of Table 1. The procedure: (§10) Compound 1 was tested for its efficacy in inhibiting activities of 40 kinases and binding with 12 GPCRs both as an antagonist and an agonist.
Data set [9] relates to 12 GPCRs. The experiment in a line: GPCR profiling, whole panel. It is filed as binding. The following applies: summary of Table 2, antagonist and agonist. Here is the method: as §10
Data set [10] deals with LIMK2 (Homo sapiens, UniProt P53671). Nature of the data set: Kinase screening. It is filed as biochemical. The procedure: as §10
Data set [11] deals with FRAP1 (mTOR) (Homo sapiens, UniProt P42345). Nature of the data set: Kinase screening. It is filed as biochemical. Here is the method:
as §10

In data set [12] the target is AKT1 (PKB alpha) (Homo sapiens, UniProt P31749). The experiment in a line: Kinase screening. It is filed as biochemical. The procedure: as §10
The target in data set [13] is CDC42 BPB (MRCKB) (Homo sapiens, UniProt Q9Y5S2). Nature of the data set: Kinase screening. The class given is biochemical. Here is the method:
as §10

In data set [14] the target is KIT (Homo sapiens, UniProt P10721). Nature of the data set: Kinase screening. It is filed as biochemical. Here is the method:
as §10

In data set [15] the target is MAPK3 (ERK1) (Homo sapiens, UniProt P27361). Nature of the data set: Kinase screening. The class given is biochemical. The procedure:
as §10

The target of data set [16] is Tiam1-Rac complex (Homo sapiens, UniProt P63000). Nature of the data set: Homologous time resolved fluorescence (HTRF) binding assay. The procedure: as §6, §7, §8, §9
In data set [17] the test system is Rac. The experiment in a line: Rac activation Elisa on spleen infiltrated by leukemic blasts. The class given is in vivo. Conditions: mice, 250 mg/Kg twice a day for 21 days, compared to a vehicle. Here is the method: as §1
The test system of data set [18] is RAS. Nature of the data set: RAS activation pull down assay (Western blot). The class given is cell-based. The following applies: Western Blot (FIG. 11b). From the text: (§11) Compound 1 was further tested to evaluate its effect on RHOA and RAS activation.
In data set [19] the test system is P12 cell line. Nature of the data set: Annexin V flow assay for apoptosis and cell death, P12. The class given is cell-based. The following applies: Annexin V staining.
Source text: as §4

The target of data set [20] is T2, RHOA (Homo sapiens, UniProt P61586).
T2 construct: endogenous in cells
Nature of the data set: RHOA activation pull down assay (Western blot). The class given is cell-based. The following applies: Western Blot (FIG. 11a).
Source text: as §11

T1 sequence (P60953 whole entry): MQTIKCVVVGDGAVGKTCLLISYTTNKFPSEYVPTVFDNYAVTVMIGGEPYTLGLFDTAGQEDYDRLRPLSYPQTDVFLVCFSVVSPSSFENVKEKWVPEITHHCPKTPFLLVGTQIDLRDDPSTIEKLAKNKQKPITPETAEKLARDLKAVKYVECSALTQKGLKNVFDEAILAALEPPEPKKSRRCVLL
CDC42 BPB (MRCKB), sequence (Q9Y5S2 whole entry, species assumed): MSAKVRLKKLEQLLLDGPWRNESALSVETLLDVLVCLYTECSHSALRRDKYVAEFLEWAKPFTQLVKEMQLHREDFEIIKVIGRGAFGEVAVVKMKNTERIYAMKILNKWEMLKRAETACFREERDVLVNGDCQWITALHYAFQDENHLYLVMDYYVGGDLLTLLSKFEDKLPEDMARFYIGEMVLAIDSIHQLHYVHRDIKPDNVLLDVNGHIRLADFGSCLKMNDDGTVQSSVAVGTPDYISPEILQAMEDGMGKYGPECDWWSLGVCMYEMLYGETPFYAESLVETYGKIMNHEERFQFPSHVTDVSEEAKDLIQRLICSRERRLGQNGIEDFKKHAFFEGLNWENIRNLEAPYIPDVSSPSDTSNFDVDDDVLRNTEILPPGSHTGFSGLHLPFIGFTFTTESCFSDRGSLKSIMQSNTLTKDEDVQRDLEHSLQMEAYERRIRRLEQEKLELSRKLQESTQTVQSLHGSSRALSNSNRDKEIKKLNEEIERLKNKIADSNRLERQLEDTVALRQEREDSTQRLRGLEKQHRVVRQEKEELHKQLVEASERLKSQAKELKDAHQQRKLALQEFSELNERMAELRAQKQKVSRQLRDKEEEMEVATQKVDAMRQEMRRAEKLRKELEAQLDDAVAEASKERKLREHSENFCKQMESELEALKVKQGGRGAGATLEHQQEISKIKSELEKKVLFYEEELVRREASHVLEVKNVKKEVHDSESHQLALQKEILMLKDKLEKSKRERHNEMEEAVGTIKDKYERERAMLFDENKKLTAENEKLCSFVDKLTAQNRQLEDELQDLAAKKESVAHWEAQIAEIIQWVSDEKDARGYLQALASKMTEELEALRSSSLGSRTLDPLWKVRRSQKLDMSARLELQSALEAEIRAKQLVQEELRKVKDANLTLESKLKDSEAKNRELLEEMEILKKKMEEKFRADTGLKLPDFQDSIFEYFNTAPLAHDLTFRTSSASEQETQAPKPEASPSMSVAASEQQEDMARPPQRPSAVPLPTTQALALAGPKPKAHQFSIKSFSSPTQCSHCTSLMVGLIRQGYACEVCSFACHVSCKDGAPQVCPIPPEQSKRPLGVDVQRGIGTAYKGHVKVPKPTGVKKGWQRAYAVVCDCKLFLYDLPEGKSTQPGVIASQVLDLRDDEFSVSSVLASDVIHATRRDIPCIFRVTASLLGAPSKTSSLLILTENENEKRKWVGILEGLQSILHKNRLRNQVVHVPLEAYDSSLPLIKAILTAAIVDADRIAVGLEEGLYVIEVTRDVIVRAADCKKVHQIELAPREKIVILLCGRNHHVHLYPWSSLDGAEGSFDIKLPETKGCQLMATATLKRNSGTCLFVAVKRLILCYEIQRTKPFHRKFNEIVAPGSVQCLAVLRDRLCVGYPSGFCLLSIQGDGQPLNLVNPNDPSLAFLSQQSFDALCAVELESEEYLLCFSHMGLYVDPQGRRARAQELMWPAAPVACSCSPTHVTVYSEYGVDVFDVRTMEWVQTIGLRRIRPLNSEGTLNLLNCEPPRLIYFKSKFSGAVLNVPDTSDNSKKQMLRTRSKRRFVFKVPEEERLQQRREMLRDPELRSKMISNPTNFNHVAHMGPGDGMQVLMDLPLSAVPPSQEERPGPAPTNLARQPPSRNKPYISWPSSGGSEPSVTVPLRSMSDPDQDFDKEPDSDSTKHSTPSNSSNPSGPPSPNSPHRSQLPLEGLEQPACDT
MAPK3 (ERK1), sequence (P27361 whole entry, species assumed): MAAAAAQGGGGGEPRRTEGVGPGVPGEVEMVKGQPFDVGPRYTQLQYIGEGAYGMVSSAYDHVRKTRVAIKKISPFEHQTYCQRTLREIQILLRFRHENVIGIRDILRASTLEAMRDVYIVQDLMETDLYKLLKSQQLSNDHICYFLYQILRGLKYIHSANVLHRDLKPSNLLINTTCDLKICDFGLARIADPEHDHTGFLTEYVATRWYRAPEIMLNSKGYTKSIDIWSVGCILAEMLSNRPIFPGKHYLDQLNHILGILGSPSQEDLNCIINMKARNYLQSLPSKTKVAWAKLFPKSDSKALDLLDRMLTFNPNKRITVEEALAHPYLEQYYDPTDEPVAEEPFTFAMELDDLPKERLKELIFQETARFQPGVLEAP
T2 sequence (P61586 whole entry): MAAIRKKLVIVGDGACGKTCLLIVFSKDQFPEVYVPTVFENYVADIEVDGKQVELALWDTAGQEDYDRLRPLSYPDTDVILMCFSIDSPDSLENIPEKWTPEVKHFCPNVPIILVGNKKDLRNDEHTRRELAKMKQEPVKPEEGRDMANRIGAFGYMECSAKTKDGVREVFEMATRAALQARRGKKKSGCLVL
AKT1 (PKB alpha), sequence (P31749 whole entry, species assumed): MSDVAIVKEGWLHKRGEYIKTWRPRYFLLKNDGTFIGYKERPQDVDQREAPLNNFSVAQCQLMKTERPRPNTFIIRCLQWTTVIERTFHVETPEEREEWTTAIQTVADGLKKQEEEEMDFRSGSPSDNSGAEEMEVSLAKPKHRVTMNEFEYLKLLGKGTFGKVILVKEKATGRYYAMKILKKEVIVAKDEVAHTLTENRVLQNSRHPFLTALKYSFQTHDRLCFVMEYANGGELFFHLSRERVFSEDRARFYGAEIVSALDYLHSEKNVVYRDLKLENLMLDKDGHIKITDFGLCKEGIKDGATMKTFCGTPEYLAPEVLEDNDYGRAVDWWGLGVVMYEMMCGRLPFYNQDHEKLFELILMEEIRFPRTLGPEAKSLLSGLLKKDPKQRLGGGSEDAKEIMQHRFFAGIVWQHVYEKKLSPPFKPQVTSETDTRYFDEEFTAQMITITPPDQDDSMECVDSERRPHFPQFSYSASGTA
KIT, sequence (P10721 26-976, species assumed): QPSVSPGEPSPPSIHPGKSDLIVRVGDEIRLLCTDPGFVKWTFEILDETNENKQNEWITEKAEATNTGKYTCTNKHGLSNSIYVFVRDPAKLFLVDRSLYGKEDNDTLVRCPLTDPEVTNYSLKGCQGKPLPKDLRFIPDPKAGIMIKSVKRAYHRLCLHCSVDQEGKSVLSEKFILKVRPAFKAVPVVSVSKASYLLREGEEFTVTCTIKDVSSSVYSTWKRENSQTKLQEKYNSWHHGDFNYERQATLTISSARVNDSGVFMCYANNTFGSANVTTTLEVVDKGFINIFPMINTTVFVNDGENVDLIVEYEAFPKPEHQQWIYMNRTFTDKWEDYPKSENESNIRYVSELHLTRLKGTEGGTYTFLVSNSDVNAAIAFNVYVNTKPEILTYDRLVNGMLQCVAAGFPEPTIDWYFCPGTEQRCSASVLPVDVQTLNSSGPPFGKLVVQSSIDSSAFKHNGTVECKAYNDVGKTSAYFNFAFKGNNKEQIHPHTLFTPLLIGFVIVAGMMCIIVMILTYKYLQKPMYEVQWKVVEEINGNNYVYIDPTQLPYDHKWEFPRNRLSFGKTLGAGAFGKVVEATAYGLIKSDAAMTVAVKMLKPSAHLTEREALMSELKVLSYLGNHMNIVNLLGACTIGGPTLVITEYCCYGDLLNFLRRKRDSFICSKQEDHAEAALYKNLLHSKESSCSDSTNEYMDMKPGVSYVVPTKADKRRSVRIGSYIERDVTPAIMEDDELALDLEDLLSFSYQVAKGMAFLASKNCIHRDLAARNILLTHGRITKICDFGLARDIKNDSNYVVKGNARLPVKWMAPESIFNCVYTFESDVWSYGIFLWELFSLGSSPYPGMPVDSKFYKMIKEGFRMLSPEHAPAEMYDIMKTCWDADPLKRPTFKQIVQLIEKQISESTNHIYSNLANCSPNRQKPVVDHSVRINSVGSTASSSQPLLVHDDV
LIMK2, sequence (P53671 whole entry, species assumed): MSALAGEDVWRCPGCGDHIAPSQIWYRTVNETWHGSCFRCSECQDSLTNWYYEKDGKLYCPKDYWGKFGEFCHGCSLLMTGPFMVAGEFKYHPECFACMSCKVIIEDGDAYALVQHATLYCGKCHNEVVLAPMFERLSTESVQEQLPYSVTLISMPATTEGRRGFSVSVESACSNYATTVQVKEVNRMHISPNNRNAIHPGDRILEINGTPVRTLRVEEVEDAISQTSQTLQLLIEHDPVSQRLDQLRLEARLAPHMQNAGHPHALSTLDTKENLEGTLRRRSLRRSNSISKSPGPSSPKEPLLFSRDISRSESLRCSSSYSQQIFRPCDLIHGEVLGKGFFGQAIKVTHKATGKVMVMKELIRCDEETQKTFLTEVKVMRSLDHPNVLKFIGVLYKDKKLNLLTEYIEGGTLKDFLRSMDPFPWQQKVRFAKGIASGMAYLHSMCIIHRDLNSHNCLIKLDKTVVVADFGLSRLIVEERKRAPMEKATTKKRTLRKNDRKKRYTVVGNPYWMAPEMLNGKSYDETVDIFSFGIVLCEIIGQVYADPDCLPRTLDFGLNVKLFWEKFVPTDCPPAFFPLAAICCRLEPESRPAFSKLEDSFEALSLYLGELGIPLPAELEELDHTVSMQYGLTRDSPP

In the case of `CCc1ccc(CN(C)C(=O)CCc2nnc(CCc3c[nH]c4ccccc34)o2)nc1` (racemic) [Compound 1], the “relative weight of the mice” value in data set [1] (vs vehicle group) is on record as “nearly identical”. Moreover, in data set [1] (imaged in supine or prone position, vs vehicle), the “bioluminescence in the mice” value was “significantly reduced”. For the same compound, the IC50 was 39.2 µM in data set [2] and 160 µM in data set [6]. In addition, the “total CDC42 levels” value in data set [3] is recorded as “no significant effect”. Also, in [3] (pull down), the CDC42 activation result is given as “dose dependent reduction”. Also, in [4], the “binding to Rac1 by 2D NMR” value was “did not indicate any binding”. Besides, the “total Rac levels” value in [5] is recorded as “no significant effect”. In data set [5] (pull down), the Rac activation result is given as “dose dependent reduction”. The “cell apoptosis and cell death” value is “caused cells apoptosis and cell death” in [7]; “caused cells apoptosis and cell death” in [19]. In addition, the “inhibition of the 40 kinases tested” value in data set [8] is “no significant inhibition”. Also, the “binding to the 12 GPCRs tested” value in data set [9] is on record as “no significant binding”. For the same compound, the inhibition percentage is 0.4 percentage in [10]; 0.9 percentage in [11]; −6.7 percentage in data set [12]; 3.3 percentage in data set [13]; −4.2 percentage in [14]; 6.7 percentage in [15]. Also, in data set [16], the “binding in the HTRF assay” value is listed as “no binding was observed”. In addition, the “Rac activation status in spleen” value in [17] was “reduced Rac activation”. Further, in data set [18], the RAS activation entry is listed as “no significant effect”. In addition, in [20], the RHOA activation result is on record as “no significant effect”.
